From publication PMC6222672, “Pharmacokinetic and Metabolism Studies of 12-Riboside-Pseudoginsengenin DQ by UPLC-MS/MS and UPLC-QTOF-MS^E” (Molecules : A Journal of Synthetic Chemistry and Natural …, 2018)
Like-named read-outs stand apart in the source and are kept apart here.

Tests used:
[1] = cited from earlier work
[2] = format: in vitro ADME; details: rat, 100 ng/mL
Procedure: RPDQ and 20R-panaxadiol stock methanol solutions (1.00 mg/mL) were all prepared with the reference compounds, respectively. Firstly, blank rat plasma was prepared. The blood samples were collected immediately from the abdominal aorta and incubated at 37 °C for 30 min. The plasma was separated by centrifugation at 4000 rpm for 15 min, and was frozen at −20 °C until analysis. By spiking the dilute solutions with blank rat plasma, calibration curves were plotted to produce the points equivalent to 5, 10, 25, 50, 100, 300, 500, and 1000 ng/mL for RPDQ. […] All the QC and calibration standards samples were prepared freshly before analysis. The specificity, linearity, LLOQ, precision and accuracy, extraction recovery, matrix effect, diluted reliability, and stability of the method were validated by following a non-clinical drug pharmacokinetic study technical guideline (China Food And Drug Administration 2014) and the Bioanalytical Method Validation Guideline (Chinese Pharmacopoeia 2015, Vol. 4). Specificity was assessed by comparing blank plasma samples, plasma was spiked with RPDQ and 20R-panaxadiol, and plasma samples were collected after administration. Linearity was analyzed through weighted regression (1/x^2) of peak area ratios (y) of RPDQ to 20R-panaxadiol versus nominal concentration (x) in plasma. […] The intra- and inter-day precision and accuracy were evaluated with the analysis of six replicate QC samples on three consecutive days, respectively. The extraction recovery and matrix effect at three QC concentrations were assayed. By comparing peak areas of RPDQ and 20R-panaxadiol in extracted QC samples with those in post-extracted blank plasma samples, the recoveries were calculated. Moreover, by comparing the peak area of samples spiked after extraction with that of the neat solution’s equivalent concentration, the matrix effect was then evaluated. Stability was evaluated by analyzing replicate QC samples, which were stored at −20 °C for two weeks at room temperature for 4 h, and experienced three freeze/thaw cycles (from −20 °C to room temperature) on consecutive days. The stabilities of RPDQ in stock solutions at 15 °C and stored in plastic autosampler vials for 16 h at 10 °C were also assessed. Five-fold higher concentrations of QC were achieved by adding moderate RPDQ to blank plasma. The samples were then diluted and analyzed with undiluted calibration standards. The accuracy and precision were within acceptable limits (± 15%).

[3] = Metabolite identification in rat plasma, bile, urine and feces by UPLC-QTOF-MSE; format: in vivo; details: rats, RPDQ 48 mg/kg i.g.
Procedure: For a metabolism study, RPDQ (48 mg/kg, i.g.) was administered to obtain a high concentration of metabolites. […] The pooled plasma sample (500 μL) was then added with methanol (2 mL) to vortex and precipitate proteins. Subsequently, the mixtures were centrifuged (10,000 rpm, 4 °C, 10 min) to obtain the supernatant, which was then evaporated by N2 to obtain the residue. Methanol (100 μL) was used to reconstitute the residue. In order to obtain bile samples, rats were anaesthetized with urethane (1.0 g/kg, intraperitoneal injection). After making an abdominal incision, the bile was collecting by surgically inserting a plastic cannula into the bile ducts. Prior to administration, blank bile was collected for 2 h. After administration, bile samples were collected for 12 h. By using metabolism cages, blank and dosed urine and feces samples were also collected prior to administration or 24 h after administration. After diluting each urine or bile sample (300 μL) with 1 mL of methanol, the mixture was centrifuged (10,000 rpm, 4 °C, 10 min) to obtain the supernatant, which was then evaporated by N2 to obtain the dried urine or bile residue. Methanol (50 μL) was then used to dissolve each residue. After centrifuging (10,000 rpm, 4 °C, 10 min), the clear supernatants were used for the analysis. […] Metabolic characterization of RPDQ was analyzed using UNIFI 1.7.0 software (Waters, Manchester, UK).

[4] = after intragastric administration

For CC(C)=CCC[C@](C)(O[C@@H]1O[C@H](CO)[C@@H](O)[C@H](O)[C@H]1O)[C@H]1CC[C@]2(C)[C@@H]1[C@H](O)C[C@@H]1[C@@]3(C)CC[C@H](O)C(C)(C)[C@@H]3CC[C@]12C [CK, Ginsenoside CK], the bioavailability [1, 4] is listed as 4.30%.
In the case of CC1(C)CCCC(C)(C2CC[C@]3(C)C2C(O)CC2C4(C)CCC(O)C(C)(C)C4CCC23C)O1 (stereo partly drawn) [IS, 20R-panaxadiol, reference compound], the Mean concentration [2] is reported as 94.11 ± 3.47 ng/mL, the Accuracy ([2]; 3 freeze-thaw cycles) is reported as −5.89% and the Accuracy ([2]; 4 h) is reported as −7.66%. The Mean concentration ([2]; 4 h) was 92.34 ± 3.12 ng/mL, the Accuracy ([2]; 16 h) was −8.66% and the Mean concentration ([2]; 16 h) was 91.34 ± 2.31 ng/mL. The Accuracy ([2]; 14 d) was −5.26% and the Mean concentration ([2]; 14 d) was 94.74 ± 4.25 ng/mL.
In the case of CC(C)=CCC[C@](C)(O[C@@H]1O[C@H](CO[C@@H]2O[C@H](CO)[C@@H](O)[C@H](O)[C@H]2O)[C@@H](O)[C@H](O)[C@H]1O)[C@H]1CC[C@]2(C)[C@@H]1[C@H](O)C[C@@H]1[C@@]3(C)CC[C@H](O[C@@H]4O[C@H](CO)[C@@H](O)[C@H](O)[C@H]4O[C@@H]4O[C@H](CO)[C@@H](O)[C@H](O)[C@H]4O)C(C)(C)[C@@H]3CC[C@]12C [Rb1, Ginsenosides Rb1], the bioavailability [1, 4] is listed as 0.78% and the “biological half time (t1/2)” value [1, 4] is listed as 9.8 h.
In the case of CC(C)=CCC[C@](C)(O[C@@H]1O[C@H](CO[C@@H]2OC[C@H](O)[C@H](O)[C@H]2O)[C@@H](O)[C@H](O)[C@H]1O)[C@H]1CC[C@]2(C)[C@@H]1[C@H](O)C[C@@H]1[C@@]3(C)CC[C@H](O[C@@H]4O[C@H](CO)[C@@H](O)[C@H](O)[C@H]4O[C@@H]4O[C@H](CO)[C@@H](O)[C@H](O)[C@H]4O)C(C)(C)[C@@H]3CC[C@]12C [Rb2], the bioavailability [1, 4] is given as 0.08% and the “biological half time (t1/2)” value [1, 4] is given as 23.1 h.
For CC(C)=CCC[C@](C)(O[C@@H]1O[C@H](CO[C@@H]2OC[C@@H](O)[C@H](O)[C@H]2O)[C@@H](O)[C@H](O)[C@H]1O)[C@H]1CC[C@]2(C)[C@@H]1[C@H](O)C[C@@H]1[C@@]3(C)CC[C@H](O[C@@H]4O[C@H](CO)[C@@H](O)[C@H](O)[C@H]4O[C@@H]4O[C@H](CO)[C@@H](O)[C@H](O)[C@H]4O)C(C)(C)[C@@H]3CC[C@]12C [Rb3], the bioavailability [1, 4] is given as 0.52% and the “biological half time (t1/2)” value [1, 4] is given as 21.1 h.
For CC(C)=CCC[C@](C)(O[C@@H]1O[C@H](CO)[C@@H](O)[C@H](O)[C@H]1O)[C@H]1CC[C@]2(C)[C@@H]1[C@H](O)C[C@@H]1[C@@]3(C)CC[C@H](O)C(C)(C)[C@@H]3[C@@H](O[C@@H]3O[C@H](CO)[C@@H](O)[C@H](O)[C@H]3O)C[C@]12C [Rg1], the bioavailability [1, 4] is given as 1.33%.
In the case of CC(C)=CCC[C@](C)(O)[C@H]1CC[C@]2(C)[C@@H]1[C@H](O)C[C@@H]1[C@@]3(C)CC[C@H](O)C(C)(C)[C@@H]3[C@@H](O[C@@H]3O[C@H](CO)[C@@H](O)[C@H](O)[C@H]3O)C[C@]12C [Rh1], the bioavailability [1, 4] is given as 1.01% and the t1/2 [1, 4] is given as 25.8 min.
For CC(C)=CCCC(C)(O)C1CCC2(C)C1C(O)CC1C3(C)CCC(O)C(C)(C)C3CCC12C (stereo not shown) [protopanaxdiol], the “bioavailability (F)” value ([1]; rat, in vivo, po) is given as 36.8% and the “elimination half-life (t1/2)” value ([1]; rat, in vivo, po) is given as 88.8 min.
In the case of CC1(C)C(O)CCC2(C)C1CCC1(C)C2CC(O)C2C([C@]3(C)CC[C@@H](C(C)(C)O)O3)CC[C@]21C (stereo partly shown) [pseudoginsengenin DQ], the “Source (samples in which detected: plasma, bile, feces, urine)” value [3] is listed as “P,B, F,U” and the “biological half time (t1/2)” value [1, 4] is listed as 5.97 h.
